Test results: PubChem BioAssay (NCI)
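Values below derive from 48-hour exposures of cells grown in 96-well plates, with endpoints linearly interpolated between the two concentrations bracketing the appropriate inhibition level. The concentration for 50% growth inhibition is given as GI50. TGI is the concentration that stops growth completely.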

Experiments:
Assay in all cases: NCI tumour cell line growth inhibition, 48 h
[1] = system: HOP-18 NSCLC
[2] = system: SF-295 CNS
[3] = system: K-562 leukemia
[4] = system: SNB-78 CNS
[5] = system: PC-3 prostate
[6] = system: NCI/ADR-RES ovarian
[7] = system: MALME-3M melanoma
[8] = system: HOP-92 NSCLC
[9] = system: T-47D breast
[10] = system: DLD-1 colon

Compound	GI50 [1] [nM]	TGI [1] [nM]	GI50 [2] [nM]	TGI [2] [µM]	GI50 [3] [nM]	TGI [3] [µM]	GI50 [4] [nM]	TGI [4] [nM]	GI50 [5] [nM]	TGI [5] [µM]	GI50 [6] [nM]	TGI [6] [µM]	GI50 [7] [nM]	TGI [7] [nM]	GI50 [8] [nM]	TGI [8] [nM]	GI50 [9] [nM]	TGI [9] [nM]	GI50 [10] [nM]	TGI [10] [nM]
CC[CH2][Sn]([CH2]CC)([O]C(=O)c1cccnc1SC)[O][Sn]([CH2]CC)([CH2]CC)[O]C(=O)c1cccnc1SC	689	1810	1040	3.04	75.6	4.32	138	1140	2300	6.48	1490	3.24	237	566	342	829	287	1520	219	998
CN1CCN(C)C12C=c1ccccc1=CC21CC1		> 100000		> 100		46.4		> 100000		> 96.3		> 100		59000		79500		> 86200		68200
CCC[CH2][Sn]([CH2]CCC)([O]C(=O)c1cccnc1SC)[O]C(=O)c1cccnc1SC	1480	2800	1380	2.67	48.2	0.372	89.3	1520					295	1490	602	1930			347	1610
